Data from PMC8307317, “Point-Substitution of Phenylalanine Residues of 26RFa Neuropeptide: A Structure-Activity Relationship Study” (Molecules, 2021).
Like-named read-outs stand apart in the source and are kept apart here. Values belong to the molecule of their own block, whether it stands above or below them. Non-standard residues stand in square brackets, D forms with d. Residues, ends and D or L forms follow the SMILES beside them. No end group written: not given here. *: point of attachment. Phe(4-tBu) = CC(C)(C)c1ccc(C[C@H](N)C(=O)O)cc1; Phe(4-Cl) = N[C@@H](Cc1ccc(Cl)cc1)C(=O)O; X7 = O=C(C(c1ccc(C(F)(F)F)cc1)N1CCNCC1)*; X5 = COc1ccc(C(C(=O)*)N2CCNCC2)cc1; X8 = O=C(C(c1ccccc1F)N1CCNCC1)*

Columns and labels:
human QRFPR (hQRFPR) [1] = biological target: T1, human QRFPR (hQRFPR) (Homo sapiens, UniProt Q96P65); parameters: method as in PMID 22800498; details: cited from earlier work
T1 construct: expressed in transfected cells; host or cells: CHO cells, stably transfected with hQRFPR (G418 selection) and Gα16 (hygromycin B selection)
T1 sequence (Q96P65 1-431): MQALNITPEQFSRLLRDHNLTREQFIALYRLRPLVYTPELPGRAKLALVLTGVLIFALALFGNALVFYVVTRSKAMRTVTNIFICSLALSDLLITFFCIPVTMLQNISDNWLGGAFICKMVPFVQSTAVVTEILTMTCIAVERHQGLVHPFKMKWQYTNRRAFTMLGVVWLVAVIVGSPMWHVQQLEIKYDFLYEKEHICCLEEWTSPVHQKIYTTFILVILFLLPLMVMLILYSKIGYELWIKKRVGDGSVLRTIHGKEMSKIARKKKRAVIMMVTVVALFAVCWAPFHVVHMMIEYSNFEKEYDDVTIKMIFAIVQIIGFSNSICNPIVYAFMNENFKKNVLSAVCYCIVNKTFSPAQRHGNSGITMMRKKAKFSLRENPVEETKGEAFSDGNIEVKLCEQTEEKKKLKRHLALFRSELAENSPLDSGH

human QRFPR (hQRFPR) [2] = biological target: T1, human QRFPR (hQRFPR); assay: Calcium mobilization assay, antagonist mode (26RFa-evoked [Ca2+]i increase in Gα16-hQRFPR-transfected CHO cells); assay type: cell-based; details: for inhibition at 10 µM: CHO, read-out: Imax (inhibition of 26RFa-evoked response); for inhibition at 10 µM / Imax (inhibition of 26RFa-evoked response): Inhibition at a maximal concentration of 10^−5 M, 10^−7 M 26RFa
Method: (§1) Stably transfected hQRFPR CHO cells were obtained as previously described. The cells were maintained in F-12 nutrient mixture (Ham-F12) medium supplemented with 10% fetal bovine serum, 2 mM glutamine, and penicillin-streptomycin. Expression of Gα16 cells was maintained using selection antibiotic hygromycin B (200 µg/mL) and that of hQRFPR using geneticin G418 (500 µg/mL) (Life Technologies, Villebon-Sur-Yvette, France) in a humidified 5% CO2 atmosphere at 37 °C.
(§2) Changes in intracellular Ca^2+ concentrations induced by 26RFa(20–26) analogs in CHO-Gα16-hQRFPR-transfected cells were measured on a benchtop scanning fluorometer Flexstation III (Molecular Devices, Sunnyvale, CA, USA) as previously described. Briefly, 96-well assay black plates with clear bottoms (Corning international, Avon, France) were seeded at a density of 40,000 cells/well 24 h prior to assay. For profiling agonistic experiments, cells were loaded with 2 µM Fluo-4 acetoxymethyl ester (AM) (Invitrogen) for 1 h in the presence of 0.01% pluronic acid, washed thrice, and incubated for 30 min with standard HBSS containing 2.5 mM probenecid and 5 mM HEPES. Compounds to be tested were added at final concentrations ranging from 10^−11 to 10^−5 M in HBSS, and the fluorescence intensity was measured during 3 min. To evaluate the antagonistic potency of the test compounds, cells were incubated with each compound over 15 min after Fluo-4 AM loading. Then, during fluorescence recording, a pulse of 26RFa was administered at a final concentration of 10^−7 M. After subtraction of the mean fluorescence background, the baseline was normalized to 100%. Fluorescence peak values were determined for each concentration of compound.
(§3) Calcium experiments were performed in triplicate, and data, expressed as mean ± SEM of at least three distinct experiments, were analyzed with the Prism 8.0 software (Graphpad Software, San Diego, CA, USA). EC50 and the IC50 values were determined from concentration–response curves using a sigmoidal dose–response fit with variable slope from at least three independent determinations. Differences between 26RFa(20–26) and analog activities were analyzed by the Mann–Whitney test. p values < 0.05 were considered significant.

human QRFPR (hQRFPR) [3] = biological target: T1, human QRFPR (hQRFPR); assay: Calcium mobilization assay, agonist mode ([Ca2+]i in Gα16-hQRFPR-transfected CHO cells); assay type: cell-based
Method: as §1, §2, §3

[4] = single prototype curve, triplicate, 10^−7 M 26RFa-evoked response, read-out: IC50 calculated from representative dose–inhibition curves (Figure 4)
[5] = [Ca2+]i mobilization in Gα16-hQRFPR-transfected CHO cells, mean of at least three independent experiments performed in triplicate, read-out: EC50

Molecule: [Cmpi^21]26RFa(21–26) [LV-2043]
- fold more potent than the reference heptapeptide 26RFa(20–26) (human QRFPR (hQRFPR) [1]): 5 fold

Molecule: CC(C)(C)c1ccc(C[C@H](NC(=O)CNC(=O)CN)C(=O)N[C@@H](CO)C(=O)N[C@@H](Cc2ccccc2)C(=O)N[C@@H](CCCNC(=N)N)C(=O)N[C@@H](Cc2ccccc2)C(N)=O)cc1 [Compound 11, [ptBuPhe^22]26RFa(20–26)] (H-GG[Phe(4-tBu)]SFRF-NH2)
- inhibition at 10 µM (human QRFPR (hQRFPR) [2]): 45 to 46%
- Imax (inhibition of 26RFa-evoked response) (human QRFPR (hQRFPR) [2]): 45%
- IC50 (human QRFPR (hQRFPR) [2]; inhibition of 10^−7 M 26RFa-evoked [Ca2+]i response, compounds inactive as agonists, ND = not detectable, read-out: IC50): 6.22 µM
- IC50 (human QRFPR (hQRFPR) [2]; [4]): 4.49 µM
- EC50 (human QRFPR (hQRFPR) [3]; [5]): > 10 µM

Molecule: COc1ccc(C(C(=O)N[C@@H](CO)C(=O)N[C@@H](Cc2ccccc2)C(=O)N[C@@H](CCCNC(=N)N)C(=O)N[C@@H](Cc2ccccc2)C(N)=O)N2CCNCC2)cc1 (some centres unmarked) [Compound 59, [Cmpi(4-MeOPhg)^22]26RFa(22–26)] (X5-SFRF-NH2)
- EC50 (human QRFPR (hQRFPR) [3]; [5]): > 10 µM

Molecule: N=C(N)NCCC[C@H](NC(=O)[C@H](Cc1ccccc1)NC(=O)[C@H](CO)NC(=O)C(c1ccc(C(F)(F)F)cc1)N1CCNCC1)C(=O)N[C@@H](Cc1ccccc1)C(N)=O (some centres unmarked) [Compound 57, [Cmpi(4-TfmPhg)^22]26RFa(22–26)] (X7-SFRF-NH2)
- EC50 (human QRFPR (hQRFPR) [3]; [5]): > 10 µM

Second part, the molecule after the results:

- inhibition at 10 µM (human QRFPR (hQRFPR) [2]): 45 to 46%
- Imax (inhibition of 26RFa-evoked response) (human QRFPR (hQRFPR) [2]): 46%
- IC50 (human QRFPR (hQRFPR) [2]; [4]): 5.84 µM
Molecule: N=C(N)NCCC[C@H](NC(=O)[C@H](Cc1ccccc1)NC(=O)[C@H](CO)NC(=O)[C@H](Cc1ccccc1)NC(=O)CNC(=O)CN)C(=O)N[C@H](Cc1c[nH]c2ccccc12)C(N)=O [Compound 39, [DTrp^26]26RFa(20–26)] (H-GGFSFR[dW]-NH2)

- EC50 (human QRFPR (hQRFPR) [3]; [5]): > 10 µM
Molecule: N=C(N)NCCC[C@H](NC(=O)[C@H](Cc1ccccc1)NC(=O)[C@H](CO)NC(=O)C(c1ccccc1F)N1CCNCC1)C(=O)N[C@@H](Cc1ccccc1)C(N)=O (some centres unmarked) [Compound 56, [Cmpi(2-FPhg)^22]26RFa(22–26)] (X8-SFRF-NH2)

- EC50 (human QRFPR (hQRFPR) [3]; [5]): 1.98 µM
Molecule: GGWSFRF-NH2 [Compound 8, [Trp^22]26RFa(20–26)]

- EC50 (human QRFPR (hQRFPR) [3]; [5]): 2.48 µM
Molecule: N=C(N)NCCC[C@H](NC(=O)[C@H](Cc1ccccc1)NC(=O)[C@H](CO)NC(=O)C(c1ccccc1F)N1CCNCC1)C(=O)N[C@@H](Cc1ccccc1)C(N)=O (some centres unmarked) [Compound 55, [Cmpi(2-FPhg)^22]26RFa(22–26)] (X8-SFRF-NH2; N-terminus assumed)

- EC50 (human QRFPR (hQRFPR) [3]; [5]): 0.457 µM
- EC50 (human QRFPR (hQRFPR) [3]; single prototype curve, triplicate, basal [Ca2+]i mobilization, read-out: EC50 calculated from representative dose–response curves (Figure 3)): 0.416 µM
Molecule: N=C(N)NCCC[C@H](NC(=O)[C@H](Cc1ccccc1)NC(=O)[C@H](CO)NC(=O)[C@H](Cc1ccccc1)NC(=O)CNC(=O)CN)C(=O)N[C@@H](Cc1ccc(Cl)cc1)C(N)=O [Compound 16, [Pcp^26]26RFa(20–26)] (H-GGFSFR[Phe(4-Cl)]-NH2)

- EC50 (human QRFPR (hQRFPR) [3]; [5]): > 10 µM
Molecule: COc1ccc(C(C(=O)N[C@@H](CO)C(=O)N[C@@H](Cc2ccccc2)C(=O)N[C@@H](CCCNC(=N)N)C(=O)N[C@@H](Cc2ccccc2)C(N)=O)N2CCNCC2)cc1 (some centres unmarked) [Compound 60, [Cmpi(4-MeOPhg)^22]26RFa(22–26)] (X5-SFRF-NH2)
